System: healthy subjects
Test: Phase 1 study: adverse events (TEAEs, MedDRA coded)
Format: in vivo, human
Description: A Phase 1 randomized, double-blind, placebo-controlled study to evaluate the effect of psilocybin on cognitive and emotional processing as compared to placebo in healthy volunteers was conducted. The study investigated the short-term (Day 7) and long-term (Day 28) effects of moderate (10 mg) and high doses (25 mg) of psilocybin on key domains of cognition, such as episodic memory, attention, working and spatial memory, social cognition and elements of executive function, including cognitive flexibility.
Each subject was assigned 1 treatment bottle containing 5 capsules packaged in a double-blind fashion, depending on the randomized treatment arm, the bottle contained one of the following: • a. Psilocybin 10 mg: 2×5-mg oral psilocybin capsules plus 3×placebo capsules • b. Psilocybin 25 mg: 5×5-mg oral psilocybin capsules • c. Placebo: 5×placebo capsules
Each 5-mg oral psilocybin capsules comprised 5 mg crystalline psilocybin in the form or Polymorph A, 12.5 mg of SMCC 50, 79.5 mg of SMCC 90, 1 mg sodium starch glycolate, 1 mg colloidal silicon dioxide, and 1 mg sodium stearyl fumarate
Adverse events: Throughout the course of the study, all AEs were monitored and recorded. Each AE was classified according to the following criteria: • i. […] Moderate: The AE produces some impairment of functioning, but is not hazardous to the subject's health. • iii. Severe: The AE produces significant impairment of functioning or incapacitation and is a definite hazard to the subject's health.
Visit 3 (V3): Drug Administration (Day 0): The subject was asked to eat a light breakfast at least two hours prior to coming to the clinic for study drug administration. On Day 0 (V3), the subject underwent the SSTS, had vital signs obtained, medications reviewed, AEs recorded and eligibility reviewed prior to being randomized to study drug. The study drug was administered to up to six subjects simultaneously in individual beds separated by a curtain. The subject was invited to put on eyeshades and headphones, lie down and listen to calming music for the rest of the session (six hours). The subject was supported 1:1 with a chaperone and supervised by the study psychiatrist and lead therapist.
During administration of psilocybin, each subject received one-on-one support from a trained assisting therapist and each dosing session was supervised by a study psychiatrist and a lead therapist. The study drug was administered simultaneously to up to six participants as a single 5-capsule oral dose (10 mg psilocybin: 2×5-mg psilocybin capsules plus 3×placebo capsules; 25 mg psilocybin: 5×5-mg psilocybin capsules; placebo: 5×placebo capsules). Twenty-five dosing sessions were completed, with up to six participants dosed simultaneously per session. Each session lasted approximately 6 to 8 hours with subjects encouraged to relax and engage in introspection for the duration. After the acute effects of the study drug had subsided, subjects were discharged.

## CN(C)CCc1c[nH]c2cccc(OP(=O)(O)O)c12 [Psilocybin, psilocybin]
10 mg and 25 mg oral, 12-week study
  Serious adverse events or adverse events that led to withdrawal: no serious adverse events or adverse events that led to withdrawal
10 mg oral
  AEs deemed potentially related to study treatment, % of AEs of the arm: 92.6%
  Affect lability, Events: 5
  Affect lability, N (%): 5 (16.7)
  Affect lability, worst severity Mild, Events: 3
  Affect lability, worst severity Mild, N (%): 3 (10.0)
  Affect lability, worst severity Moderate, Events: 2
  Affect lability, worst severity Moderate, N (%): 2 (6.7)
  Affect lability, worst severity Severe, Events: 0
  Affect lability, worst severity Severe, N (%): 0
  Any Selected TEAE, Events: 106
  Any Selected TEAE, N (%): 27 (90.0)
  Any TEAE leading to death, Events: 0
  Any TEAE leading to death, N (%): 0
  Any TEAE leading to study discontinuation, Events: 0
  Any TEAE leading to study discontinuation, N (%): 0
  Any TEAE related to study treatment, Events: 188
  Any TEAE related to study treatment, N (%): 29 (96.7)
  Any TEAE, Events: 203
  Any TEAE, N (%): 29 (96.7)
  Any TEAE, worst severity Mild, Events: 12
  Any TEAE, worst severity Mild, N (%): 6 (20.0)
  Any TEAE, worst severity Moderate, Events: 38
  Any TEAE, worst severity Moderate, N (%): 13 (43.3)
  Any TEAE, worst severity Severe, Events: 22
  Any TEAE, worst severity Severe, N (%): 10 (33.3)
  Any serious TEAE related to study treatment, Events: 0
  Any serious TEAE related to study treatment, N (%): 0
  Any serious TEAE, Events: 0
  Any serious TEAE, N (%): 0
  Any severe TEAE, Events: 22
  Any severe TEAE, N (%): 10 (33.3)
  Change in sustained attention, Events: 2
  Change in sustained attention, N (%): 2 (6.7)
  Depressed mood, Events: 1
  Depressed mood, N (%): 1 (3.3)
  Dissociative identity disorder, Events: 2
  Dissociative identity disorder, N (%): 1 (3.3)
  Emotional disorder, Events: 2
  Emotional disorder, N (%): 2 (6.7)
  Emotional disorder, worst severity Mild, Events: 1
  Emotional disorder, worst severity Mild, N (%): 1 (3.3)
  Emotional disorder, worst severity Moderate, Events: 1
  Emotional disorder, worst severity Moderate, N (%): 1 (3.3)
  Emotional disorder, worst severity Severe, Events: 0
  Emotional disorder, worst severity Severe, N (%): 0
  Euphoric mood, Events: 7
  Euphoric mood, N (%): 7 (23.3)
  Euphoric mood, worst severity Mild, Events: 0
  Euphoric mood, worst severity Mild, N (%): 0
  Euphoric mood, worst severity Moderate, Events: 6
  Euphoric mood, worst severity Moderate, N (%): 6 (20.0)
  Euphoric mood, worst severity Severe, Events: 1
  Euphoric mood, worst severity Severe, N (%): 1 (3.3)
  Fatigue, Events: 10
  Fatigue, N (%): 9 (30.0)
  Fatigue, worst severity Mild, Events: 6
  Fatigue, worst severity Mild, N (%): 6 (20.0)
  Fatigue, worst severity Moderate, Events: 3
  Fatigue, worst severity Moderate, N (%): 2 (6.7)
  Fatigue, worst severity Severe, Events: 1
  Fatigue, worst severity Severe, N (%): 1 (3.3)
  Feeling abnormal, Events: 4
  Feeling abnormal, N (%): 4 (13.3)
  Feeling abnormal, worst severity Mild, Events: 3
  Feeling abnormal, worst severity Mild, N (%): 3 (10.0)
  Feeling abnormal, worst severity Moderate, Events: 1
  Feeling abnormal, worst severity Moderate, N (%): 1 (3.3)
  Feeling abnormal, worst severity Severe, Events: 0
  Feeling abnormal, worst severity Severe, N (%): 0
  Feeling of relaxation, Events: 5
  Feeling of relaxation, N (%): 3 (10.0)
  Gastrointestinal disorders, Events: 4
  Gastrointestinal disorders, N (%): 4 (13.3)
  Gastrointestinal disorders, worst severity Mild, Events: 3
  Gastrointestinal disorders, worst severity Mild, N (%): 3 (10.0)
  Gastrointestinal disorders, worst severity Moderate, Events: 1
  Gastrointestinal disorders, worst severity Moderate, N (%): 1 (3.3)
  Gastrointestinal disorders, worst severity Severe, Events: 0
  Gastrointestinal disorders, worst severity Severe, N (%): 0
  General disorders and administration site conditions, Events: 27
  General disorders and administration site conditions, N (%): 17 (56.7)
  General disorders and administration site conditions, worst severity Mild, Events: 17
  General disorders and administration site conditions, worst severity Mild, N (%): 13 (43.3)
  General disorders and administration site conditions, worst severity Moderate, Events: 6
  General disorders and administration site conditions, worst severity Moderate, N (%): 3 (10.0)
  General disorders and administration site conditions, worst severity Severe, Events: 1
  General disorders and administration site conditions, worst severity Severe, N (%): 1 (3.3)
  Hallucination, Events: 3
  Hallucination, N (%): 3 (10.0)
  Hallucination, auditory, Events: 4
  Hallucination, auditory, N (%): 4 (13.3)
  Hallucination, auditory, worst severity Mild, Events: 1
  Hallucination, auditory, worst severity Mild, N (%): 1 (3.3)
  Hallucination, auditory, worst severity Moderate, Events: 1
  Hallucination, auditory, worst severity Moderate, N (%): 1 (3.3)
  Hallucination, auditory, worst severity Severe, Events: 2
  Hallucination, auditory, worst severity Severe, N (%): 2 (6.7)
  Hallucination, gustatory, Events: 1
  Hallucination, gustatory, N (%): 1 (3.3)
  Hallucination, olfactory, Events: 1
  Hallucination, olfactory, N (%): 1 (3.3)
  Hallucination, tactile, Events: 2
  Hallucination, tactile, N (%): 2 (6.7)
  Hallucination, visual, Events: 20
  Hallucination, visual, N (%): 18 (60.0)
  Hallucination, visual, worst severity Mild, Events: 3
  Hallucination, visual, worst severity Mild, N (%): 3 (10.0)
  Hallucination, visual, worst severity Moderate, Events: 8
  Hallucination, visual, worst severity Moderate, N (%): 8 (26.7)
  Hallucination, visual, worst severity Severe, Events: 7
  Hallucination, visual, worst severity Severe, N (%): 7 (23.3)
  Hallucination, worst severity Mild, Events: 0
  Hallucination, worst severity Mild, N (%): 0
  Hallucination, worst severity Moderate, Events: 3
  Hallucination, worst severity Moderate, N (%): 3 (10.0)
  Hallucination, worst severity Severe, Events: 0
  Hallucination, worst severity Severe, N (%): 0
  Headache, Events: 12
  Headache, N (%): 9 (30.0)
  Headache, worst severity Mild, Events: 12
  Headache, worst severity Mild, N (%): 9 (30.0)
  Headache, worst severity Moderate, Events: 0
  Headache, worst severity Moderate, N (%): 0
  Headache, worst severity Severe, Events: 0
  Headache, worst severity Severe, N (%): 0
  Hypoaesthesia, Events: 2
  Hypoaesthesia, N (%): 2 (6.7)
  Hypoaesthesia, worst severity Mild, Events: 2
  Hypoaesthesia, worst severity Mild, N (%): 2 (6.7)
  Hypoaesthesia, worst severity Moderate, Events: 0
